A short description of series [1]: Chemical stability assessed as hydrolysis at pH 3 to 9 after 1.5 hrs. The conditions noted are these: buffer, pH 3, 1.5 h. It counts as physicochemical.
Series [2] can be described thus: Chemical stability assessed as hydrolysis at pH below 1. It counts as physicochemical.
The nature of series [3]: Chemical stability assessed as hydrolysis at pH more than 10. It is filed as physicochemical.
Series [4] in a line: Photostability after 30 mins assessed by fluorescence intensity. The conditions noted are these: 0.5 h. It is filed as ADME.

Activity and Fluorescence intensity data for 2 molecules are collected here from ChEMBL document CHEMBL1149690, “Membrane permeable esterase-activated fluorescent imaging probe” (Bioorg Med Chem Lett, 2007).

SMILES strings stand for the structures.

For `CCCN1/C(=C/C=C2\CCCC(/C=C/C3=[N+](CCC)c4ccccc4C3(C)C)=C2OC(C)=O)C(C)(C)c2ccccc21.[I-]`, the Activity entry was “Not Active” in series [1], “Active” in series [2] and “Active” in series [3].

Regarding `CCCN1/C(=C/C=C2\CCC/C(=C\C=C3\N(CCC)c4ccccc4C3(C)C)C2=O)C(C)(C)c2ccccc21`, in series [4], the Fluorescence intensity is given as < 15%.
